These results are taken from patent publication US9650339B2, “Inhibitors of histone demethylases” (Gilead Sciences, Inc., priority 2013, dated 2017).

SMILES strings stand for the structures. A value given as a limit tells only on which side of the number the result lay.

One experiment has as its target T1, KDM4A (JMJD2A) (Homo sapiens, UniProt O75164).
T1 construct: 1-350; purchased BPS Bioscience, US; host or cells: E. coli
T1 sequence (O75164 1-350): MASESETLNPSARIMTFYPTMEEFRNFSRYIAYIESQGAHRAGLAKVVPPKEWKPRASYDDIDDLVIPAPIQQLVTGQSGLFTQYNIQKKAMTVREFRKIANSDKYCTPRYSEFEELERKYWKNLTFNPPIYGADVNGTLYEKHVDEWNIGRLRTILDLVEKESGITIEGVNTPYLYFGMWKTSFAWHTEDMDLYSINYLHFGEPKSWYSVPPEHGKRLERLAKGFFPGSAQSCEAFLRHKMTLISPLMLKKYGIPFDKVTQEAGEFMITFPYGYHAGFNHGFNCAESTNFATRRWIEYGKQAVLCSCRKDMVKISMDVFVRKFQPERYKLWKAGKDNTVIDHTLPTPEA
Briefly: Histone lysine demethylase AlphaLISA assay, KDM4A. Type of experiment: biochemical. Particulars: read-out: KDM4A HDME Inhibition IC50. In short, it runs like this: (§1)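 AlphaLISA demethylation readout: enzyme preincubated 10 min, then 10 min with compounds in 3% DMSO buffer, before biotinylated methyl-lysine histone peptide substrate with 25 μM L-Asc and 10 μM α-KG, room temperature. Acceptor beads then streptavidin donor beads added, dark incubation, plates read.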
(In general: Alpha assays give light when donor and acceptor beads are brought close together.)

The next experiment addresses T2, KDM3A (JMJD1A) (Homo sapiens, UniProt Q9Y4C1).
T2 construct: 2-end; purchased BPS Bioscience, US; host or cells: Bac (baculovirus system)
T2 sequence (Q9Y4C1 2-1321 limits assumed): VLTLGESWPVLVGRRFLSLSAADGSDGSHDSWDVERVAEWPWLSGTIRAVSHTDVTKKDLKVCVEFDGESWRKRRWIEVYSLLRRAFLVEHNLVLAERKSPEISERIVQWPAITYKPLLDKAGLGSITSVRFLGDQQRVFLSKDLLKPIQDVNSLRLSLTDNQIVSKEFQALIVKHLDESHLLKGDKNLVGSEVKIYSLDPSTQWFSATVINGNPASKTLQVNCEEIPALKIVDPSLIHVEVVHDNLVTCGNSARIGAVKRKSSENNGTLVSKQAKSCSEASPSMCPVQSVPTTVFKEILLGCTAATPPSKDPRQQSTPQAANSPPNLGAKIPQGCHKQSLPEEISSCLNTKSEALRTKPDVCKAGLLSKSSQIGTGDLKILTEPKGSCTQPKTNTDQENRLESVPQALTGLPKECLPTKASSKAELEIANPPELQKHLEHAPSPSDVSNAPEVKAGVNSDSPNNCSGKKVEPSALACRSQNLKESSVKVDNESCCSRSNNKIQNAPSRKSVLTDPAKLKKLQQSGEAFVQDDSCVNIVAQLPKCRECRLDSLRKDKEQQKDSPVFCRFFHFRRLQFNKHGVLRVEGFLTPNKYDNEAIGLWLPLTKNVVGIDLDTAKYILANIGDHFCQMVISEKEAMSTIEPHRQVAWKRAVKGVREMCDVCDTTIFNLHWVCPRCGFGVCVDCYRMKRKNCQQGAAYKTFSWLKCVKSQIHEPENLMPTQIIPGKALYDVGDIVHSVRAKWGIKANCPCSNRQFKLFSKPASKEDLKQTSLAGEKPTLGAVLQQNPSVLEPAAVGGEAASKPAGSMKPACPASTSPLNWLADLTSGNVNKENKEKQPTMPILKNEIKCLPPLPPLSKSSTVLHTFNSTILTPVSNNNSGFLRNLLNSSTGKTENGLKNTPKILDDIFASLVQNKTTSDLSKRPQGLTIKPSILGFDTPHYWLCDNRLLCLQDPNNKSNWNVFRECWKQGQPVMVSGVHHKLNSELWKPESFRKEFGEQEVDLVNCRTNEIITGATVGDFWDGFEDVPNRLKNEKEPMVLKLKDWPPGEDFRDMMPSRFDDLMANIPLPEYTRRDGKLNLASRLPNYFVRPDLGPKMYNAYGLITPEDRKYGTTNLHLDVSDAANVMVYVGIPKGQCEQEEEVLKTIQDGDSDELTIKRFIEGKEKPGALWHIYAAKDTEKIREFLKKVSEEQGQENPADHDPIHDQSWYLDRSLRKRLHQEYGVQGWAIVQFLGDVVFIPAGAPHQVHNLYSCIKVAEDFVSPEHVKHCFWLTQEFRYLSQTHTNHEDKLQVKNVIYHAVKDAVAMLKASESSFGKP
Briefly: Histone lysine demethylase AlphaLISA assay, KDM3A. Type of experiment: biochemical. The conditions noted are these: read-out: KDM3 A HDME Inhibition IC50. The essentials: as §1

Another experiment has as its system MCF7 cells. Briefly: Cell proliferation assay MCF7. It is filed as cell-based. The conditions noted are these: MCF7 human breast cancer cells; 120 hours; ATPlite 1 Step. In short, it runs like this: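 Cells grown 24 h in DMEM GlutaMAX/10% FBS, then exposed to compounds in duplicate (≤0.5% DMSO) for 120 h. Viability read as ATP luminescence (ATPlite 1 Step). Seeding set to reach ~90% confluence at harvest.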
In general terms: In ATP-based viability assays light output follows the ATP content of the culture.

A further experiment addresses T3, KDM5C (JARID1C) (Homo sapiens, UniProt P41229).
T3 construct: 2-1560; purchased BPS; host or cells: Bac (baculovirus system)
Briefly: Histone lysine demethylase AlphaLISA assay, KDM5C. Particulars: read-out: KDM5C HDME Inhibition IC50. It is filed as biochemical. In short, it runs like this: as §1

T3 sequence (P41229 2-1560): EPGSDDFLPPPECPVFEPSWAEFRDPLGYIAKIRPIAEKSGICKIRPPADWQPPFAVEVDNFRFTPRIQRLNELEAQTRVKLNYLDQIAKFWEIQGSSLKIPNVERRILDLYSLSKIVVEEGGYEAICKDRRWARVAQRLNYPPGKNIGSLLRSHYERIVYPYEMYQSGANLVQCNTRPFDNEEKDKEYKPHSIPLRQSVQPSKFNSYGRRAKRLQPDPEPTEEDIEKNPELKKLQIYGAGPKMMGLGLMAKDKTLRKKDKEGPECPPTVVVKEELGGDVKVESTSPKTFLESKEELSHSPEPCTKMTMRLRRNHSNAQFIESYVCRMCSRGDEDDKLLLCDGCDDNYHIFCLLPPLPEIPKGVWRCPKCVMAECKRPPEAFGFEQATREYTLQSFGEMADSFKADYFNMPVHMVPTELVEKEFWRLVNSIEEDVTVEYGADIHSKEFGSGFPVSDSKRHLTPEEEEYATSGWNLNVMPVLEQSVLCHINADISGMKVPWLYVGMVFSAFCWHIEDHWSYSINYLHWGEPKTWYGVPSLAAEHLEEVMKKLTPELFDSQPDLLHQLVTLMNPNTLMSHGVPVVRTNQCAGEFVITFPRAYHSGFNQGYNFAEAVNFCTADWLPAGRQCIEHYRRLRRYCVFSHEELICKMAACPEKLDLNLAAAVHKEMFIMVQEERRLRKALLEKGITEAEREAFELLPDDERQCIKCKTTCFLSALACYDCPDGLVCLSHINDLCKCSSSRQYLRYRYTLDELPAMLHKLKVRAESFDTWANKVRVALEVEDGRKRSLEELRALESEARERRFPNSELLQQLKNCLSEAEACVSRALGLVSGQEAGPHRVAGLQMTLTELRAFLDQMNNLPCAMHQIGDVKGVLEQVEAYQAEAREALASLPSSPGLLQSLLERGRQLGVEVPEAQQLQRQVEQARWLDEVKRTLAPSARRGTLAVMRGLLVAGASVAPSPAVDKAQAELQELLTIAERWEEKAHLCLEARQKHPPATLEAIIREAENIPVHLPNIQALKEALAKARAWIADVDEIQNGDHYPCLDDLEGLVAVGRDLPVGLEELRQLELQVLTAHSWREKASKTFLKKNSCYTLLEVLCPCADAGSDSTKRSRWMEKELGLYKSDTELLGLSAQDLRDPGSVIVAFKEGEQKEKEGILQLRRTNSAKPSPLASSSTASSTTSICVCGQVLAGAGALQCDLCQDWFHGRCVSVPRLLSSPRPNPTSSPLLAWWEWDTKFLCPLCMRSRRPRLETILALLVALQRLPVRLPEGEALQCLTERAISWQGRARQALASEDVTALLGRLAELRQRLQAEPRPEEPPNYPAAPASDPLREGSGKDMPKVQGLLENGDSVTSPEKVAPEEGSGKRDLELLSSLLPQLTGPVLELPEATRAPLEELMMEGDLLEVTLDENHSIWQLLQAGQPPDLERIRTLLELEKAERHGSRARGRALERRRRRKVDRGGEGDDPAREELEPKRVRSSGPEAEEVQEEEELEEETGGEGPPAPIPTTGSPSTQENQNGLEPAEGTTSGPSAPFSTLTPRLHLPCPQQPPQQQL

As to `CN(C)CCCCNCc1cc(CN)ccn1` [Compound 2, [2-({[4-(dimethylamino)butyl]-amino}methyl)pyridin-4-yl]methanamine], the IC50 at KDM4A (JMJD2A) and on KDM3A (JMJD1A) was above 2500 nM throughout. This compound showed an EC50 in the experiment with MCF7 cells below 250 nM.

Take `CN(C)CCNCc1ccnc(CNCCCN(C)Cc2ccccc2)c1` [Compound 18, benzyl[3-({[4-({[2-(dimethylamino)ethyl]-amino}methyl)pyridin-2-yl]methyl}-amino)propyl]-methylamine]: the IC50 on KDM4A (JMJD2A) and at KDM3A (JMJD1A) was above 2500 nM throughout.

For `COCCNCc1ccnc(CNCCCN(C)Cc2ccccc2)c1` [Compound 19, benzyl(3-{[(4-{[(2-methoxyethyl)amino]-methyl}pyridin-2-yl)methyl]amino}-propyl)methylamine], the IC50 at KDM4A (JMJD2A), on KDM3A (JMJD1A) and on KDM5C (JARID1C) was above 2500 nM in each case.

Consider `COc1ccccc1CN1CCC(NC(=O)CNCc2cc(CNC3CC3)ccn2)CC1` [Compound 20, 2-[({4-[(cyclopropylamino)-methyl]pyridin-2-yl}methyl)amino]-N-{1-[(2-methoxyphenyl)methyl]-piperidin-4-yl}acetamide], for which the IC50 at KDM4A (JMJD2A) is below 250 nM; on KDM3A (JMJD1A) it was above 2500 nM; on KDM5C (JARID1C), below 250 nM.

`CCN(CCN(C)C)C(=O)CN(Cc1cc(CNC(=O)C(F)(F)F)ccn1)C(=O)C(F)(F)F` [Compound 26, N-[(2-{[N-({[2-(dimethylamino)ethyl]-(ethyl)carbamoyl}-methyl)-2,2,2-trifluoroacetamido]-methyl}pyridin-4-yl)methyl]-2,2,2-trifIuoroacetamide]: in the experiment on MCF7 cells, the EC50 was below 250 nM.

On to `COC(=O)CNCc1cc(/C=N/C2CC2)ccn1` [Compound 59, methyl 2-[({4-[N-cyclopropyl-carboximidoyl]pyridin-2-yl}methyl)amino]-acetate], for which the 50% inhibitory concentration (IC50) on KDM4A (JMJD2A) was 250 to 2500 nM; on KDM3A (JMJD1A), above 2500 nM; at KDM5C (JARID1C), below 250 nM.

For the compound `CCN(CC)CCCCNCc1cc(C2NCCCN2C)ccn1` (stereo not drawn) [Compound 68, [4-(diethylamino)butyl]({[4-(1-methyl-1,3-diazinan-2-yl)pyridin-2-yl]methyl})amine], in the experiment on MCF7 cells, the EC50 was below 250 nM.

`O=Cc1ccnc(CNCCCCN(Cc2ccccc2)C2CC2)c1` [Compound 109, 2-[({4-[benzyl-(cyclopropyl)amino]-butyl}amino)methyl]-pyridine-4-carbaldehyde]: the IC50 on KDM4A (JMJD2A) and on KDM3A (JMJD1A) was above 2500 nM throughout.

On to `O=Cc1ccnc(CNCC(=O)NC2CCN(Cc3ccccc3)C2)c1` (stereo not drawn) [Compound 113, N-(1-benzylpyrrolidin-3-yl)-2-{[(4-formylpyridin-2-yl)methyl]amino}-acetamide], for which the results for the IC50 at KDM4A (JMJD2A), on KDM3A (JMJD1A) and at KDM5C (JARID1C) were 250 to 2500 nM, above 2500 nM and 250 to 2500 nM, respectively.

The IC50 is the concentration at which inhibition is half-maximal. What is called EC50 is the concentration giving half of the maximal effect. A higher EC50 goes with a less potent agent.
